From patent US20230172936A1, “VCP/p97 INHIBITOR FOR THE TREATMENT OF CANCER” (Cleave Therapeutics, Inc., priority 2020, published 2023)
Several values for one entry are separate records, joined by “and”; a condition that tells them apart may be missing. Identical values can stand only once.

Legend:
[1] = Human plasma pharmacokinetics (Phase I dose escalation)
Description: BID dosing may be also tested depending on initial PK assessments. Participants will be evaluated regularly for safety assessments including physical examinations and laboratory testing. Bone marrow aspirates and/or biopsies will be performed at regular intervals, including for assessment of tumor response as per 2017 European LeukemiaNet (ELN) response criteria for AML or 2006 revised International Working Group (IWG) response criteria for MDS. Peripheral blood samples will be collected in Cycle 1 for intensive PK testing and PD biomarker assessments. Additional intensive PK testing will be collected for any participants undergoing intra-patient dose escalation.
A cycle consists of 28 days and the first cycle will comprise the DLT observation period.
Following the protocol of Example 7, additional patients were treated in the dose escalation study.

MLL-AF9 cells = assay: MLL-AF9 allogenic disseminated mouse model of AML; assay type: in vivo, mice; details: 90 mg/kg oral gavage, 4 days on/3 days off, vs vehicle
Method: Compound 1 was tested in the MLL-AF9 allogenic disseminated mouse model of AML. 200,000 MLL-AF9-cells were injected via tail vein into 6-week-old C57BL/6 male mice (The Jackson Laboratory). Starting at day 8 after cell injection, mice were treated with Compound 1 delivered through oral gavage (90 mg/kg) or vehicle (0.5% methylcellulose) on a dosing schedule of 4 days “on” (administered on each of 4 days sequentially) followed by 3 days “off” (no administration on each of 3 sequential days) for 2 full cycles (two weeks total of 4 on/3 off).
The proportion of MLL-AF9 cells in peripheral blood (n=6 mice per group) was measured at 12 days post-injection of MLL-AF9 cells using flow cytometry. Murine peripheral blood, bone marrow and spleen were collected from each organ, washed with PBS-0.1% BSA-2 mM EDTA and lysed for 10 minutes with red blood cell lysis buffer (Sigma). After two washing steps with PBS-0.1% BSA-2 mM EDTA, bone marrow cells were stained for 30 minutes at 4° C. with corresponding cell surface antibodies for CD45 (CD45 […], Invitrogen). Cells were then washed twice with PBS-0.1% BSA-2 mM EDTA before analysis of 10,000 cells gated for CD45+(high) with BD FACSCanto II (BD Biosciences) to isolate the AML blast population. Statistical significance determined using Mann-Whitney test in comparison with vehicle. Error bars represent mean±SEM. […]

For `Cc1cc2c(C(N)=O)cccc2n1-c1nc2c(c(NCc3ccccc3)n1)CCCN2` [Compound 1, 1-(4-(Benzylamino)-5,6,7,8-tetrahydropyrido[2,3-d]pyrimidin-2-yl)-2-methyl-1H-indole-4-carboxamide], the AR ([1]; 25 mg QD, Day 4) was 0.914, the accumulation ([1]; 25 mg QD, between days 1 and 4) was “No accumulation” and the “exposure with concomitant proton pump inhibitors (PPi)” value ([1]; 100 mg QD, two of three subjects) was “lower exposure”. For the same compound, the “exposure level increases between the doses” value ([1]; 25, 50, 100 and 175 mg QD, 9 patients) was “proportional and linear”, the “plasma exposure compared with CB-5083” value ([1]; Compound 1 25 mg QD vs CB-5083 40 mg QD) was “significantly higher plasma exposure” and the “exposures compared with CB-5083” value ([1]; Compound 1 25 mg QD vs CB-5083 at greater than 200 mg, FIG. 7) was “greater than dosing CB-5083 at greater than 200 mg”. The “exposures compared with CB-5083” value ([1]; dose escalation 25-175 mg QD, FIG. 8) was “greater than dosing CB-5083”, the Tmax ([1]; human, in vivo, 25 mg) was 2 h and the tmax ([1]; human, in vivo, 25 mg) was 2 h. For the same compound, the AUC(0-inf) ([1]; human, in vivo, 25 mg, AUC0-inf) was 1.03 µM·h and 425 ng·h/mL, the AUC(0-t) ([1]; human, in vivo, 25 mg, AUC0-t) was 0.88 µM·h and 364 ng·h/mL and the Cmax ([1]; human, in vivo, 25 mg, Cmax) was 198 nM and 81.7 ng/mL. For the same compound, the half-life ([1]; human, in vivo, 25 mg, half-life) was 3 to 4 h, the half-life ([1]; human, in vivo, 25 mg, t1/2) was 2.61 h and the overall survival (MLL-AF9 cells; 2 cycles) was “improved the overall survival”. The “circulating blast counts (MLL-AF9 cells in peripheral blood)” value (MLL-AF9 cells; 12 days post-injection) was “reduced circulating blast counts”.
